Assay results as given in patent US10479780B2, “Aminopyrazole derivatives” (Chugai Seiyaku Kabushiki Kaisha, priority 2015, dated 2019).
pIC50: −log10 of the molar value. Like-named read-outs stand apart in the source and are kept apart here.

Experiments:
human Yes1 enzyme = biological target: T1, human Yes1 enzyme (Homo sapiens, UniProt P07947); assay: Yes1 enzyme inhibitory activity (time-resolved fluorometry, biotinylated peptide phosphorylation); format: biochemical; details: read-out: YES_IC50
T1 construct: made in house
Experimental: (§1) 1. Yes1 Enzyme Inhibitory Activity Yes1 inhibitory activity was determined based on activity of inhibiting phosphorylation reaction of a biotinylated peptide (EGPWLEEEEEAYGWMDF) using a human Yes1 enzyme prepared using a baculovirus expression system. The phosphorylated biotinylated peptide was detected by time-resolved fluorometry using an anti-phosphorylated tyrosine antibody conjugated to europium cryptate, and streptavidin conjugated to XL665, an allophycocyanin derivative. The 50% inhibitory concentration (IC50) was calculated from the inhibition rate relative to the control group without containing the test substance.

human Lck enzyme = biological target: T2, human Lck enzyme (Homo sapiens, UniProt P06239); assay: Lck enzyme inhibitory activity (time-resolved fluorometry, biotinylated peptide phosphorylation); format: biochemical; details: read-out: LCK_IC50
T2 construct: purchased Carna Biosciences, Inc. 08-170
Experimental: as §1, with “3. Lck” for “1. Yes1”, “Lck” for “Yes1”, “(manufactured by Carna Biosciences, Inc., cat 08-170).” for “prepared using a baculovirus expression system.”

[1] = biotinylated peptide phosphorylation

T1 sequence (P07947 whole entry): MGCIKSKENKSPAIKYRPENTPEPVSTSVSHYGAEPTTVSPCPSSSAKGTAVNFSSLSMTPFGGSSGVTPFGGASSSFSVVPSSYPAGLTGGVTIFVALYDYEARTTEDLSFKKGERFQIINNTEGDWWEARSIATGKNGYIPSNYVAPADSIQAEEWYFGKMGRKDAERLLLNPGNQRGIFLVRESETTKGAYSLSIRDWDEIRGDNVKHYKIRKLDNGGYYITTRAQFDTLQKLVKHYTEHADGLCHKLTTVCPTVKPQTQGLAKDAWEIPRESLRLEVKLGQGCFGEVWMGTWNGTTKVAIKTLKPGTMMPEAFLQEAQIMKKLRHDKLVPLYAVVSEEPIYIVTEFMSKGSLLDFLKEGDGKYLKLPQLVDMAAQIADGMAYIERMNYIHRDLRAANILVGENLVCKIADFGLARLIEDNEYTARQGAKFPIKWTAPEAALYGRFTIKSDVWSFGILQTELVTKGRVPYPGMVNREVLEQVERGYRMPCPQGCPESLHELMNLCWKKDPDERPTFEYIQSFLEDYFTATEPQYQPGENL
T2 sequence (P06239 whole entry): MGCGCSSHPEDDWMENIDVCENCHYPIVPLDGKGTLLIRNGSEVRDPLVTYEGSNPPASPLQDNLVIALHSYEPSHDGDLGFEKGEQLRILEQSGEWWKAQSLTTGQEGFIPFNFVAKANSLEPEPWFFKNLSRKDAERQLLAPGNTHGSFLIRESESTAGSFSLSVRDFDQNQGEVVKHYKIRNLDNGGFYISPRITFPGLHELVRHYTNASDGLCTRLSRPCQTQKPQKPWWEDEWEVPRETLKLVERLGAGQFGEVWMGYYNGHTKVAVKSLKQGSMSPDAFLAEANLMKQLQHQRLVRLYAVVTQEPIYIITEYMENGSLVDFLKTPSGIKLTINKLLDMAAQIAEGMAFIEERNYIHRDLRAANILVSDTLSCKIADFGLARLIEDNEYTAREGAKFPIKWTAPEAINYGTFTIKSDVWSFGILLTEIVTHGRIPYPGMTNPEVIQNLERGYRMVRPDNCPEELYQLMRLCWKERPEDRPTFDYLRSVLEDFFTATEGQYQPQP

pIC50 (human Yes1 enzyme) | pIC50 (human Lck enzyme) | pIC50 (human Yes1 enzyme; [1]) | pIC50 (human Lck enzyme; [1]) | Compound
7.03 | 5.70 |  |  | Cc1cc(-n2ncc(C(=O)c3cc4cc(F)c(NS(C)(=O)=O)cc4[nH]3)c2N)cnc1Oc1ccccc1Cl [Example 5-1-041, N-[2-[5-amino-1-[6-(2-chlorophenoxy)-5-methylpyridin-3-yl]pyrazole-4-carbonyl]-5-fluoro-1H-indol-6-yl]methanesulfonamide]
6.57 | 5.72 |  |  | Cc1cc(-n2ncc(C(=O)c3cc4cc(F)c(NS(C)(=O)=O)cc4[nH]3)c2N)cnc1Oc1cccc(Cl)c1 [Example 5-1-042, N-[2-[5-amino-1-[6-(3-chlorophenoxy)-5-methylpyridin-3-yl]pyrazole-4-carbonyl]-5-fluoro-1H-indol-6-yl]methanesulfonamide]
7.42 | 5.59 |  |  | Cc1cc(-n2ncc(C(=O)c3cc4cc(F)c(NS(C)(=O)=O)cc4[nH]3)c2N)cnc1Oc1c(F)cccc1Cl [Example 5-1-043, N-[2-[5-amino-1-[6-(2-chloro-6-fluorophenoxy)-5-methylpyridin-3-yl]pyrazole-4-carbonyl]-5-fluoro-1H-indol-6-yl] methanesulfonamide]
7.28 | 5.57 |  |  | Cc1cc(-n2ncc(C(=O)c3cc4cc(F)c(NS(C)(=O)=O)cc4[nH]3)c2N)cnc1Oc1cccc(F)c1F [Example 5-1-044, N-[2-[5-amino-1-[6-(2,3-difluorophenoxy)-5-methylpyridin-3-yl]pyrazole-4-carbonyl]-5-fluoro-1H-indol-6-yl]methanesulfonamide]
6.68 | 5.36 |  |  | Cc1cc(-n2ncc(C(=O)c3cc4cc(F)c(NS(C)(=O)=O)cc4[nH]3)c2N)cnc1Oc1cc(F)cc(F)c1 [Example 5-1-045, N-[2-[5-amino-1-[6-(3,5-difluorophenoxy)-5-methylpyridin-3-yl]pyrazole-4-carbonyl]-5-fluoro-1H-indol-6-yl]methanesulfonamide]
8.32 | 6.49 |  |  | Cc1cc(-n2ncc(C(=O)c3cc4cc(OCC(F)F)c(Br)cc4[nH]3)c2N)ccc1Oc1ccccc1F [Example 5-1-150, [5-amino-1-[4-(2-fluorophenoxy)-3-methylphenyl]pyrazol-4-yl]-[6-bromo-5-(2,2-difluoroethoxy)-1H-indol-2-yl]methanone]
8.14 | 5.11 |  |  | Cc1cc(-n2ncc(C(=O)c3cc4cc(OC(F)F)c(Br)cc4[nH]3)c2N)ccc1Oc1ccccc1F [Example 5-1-152, [5-amino-1-[4-(2-fluorophenoxy)-3-methylphenyl]pyrazol-4-yl]-[6-bromo-5-(difluoromethoxy)-1H-indol-2-yl]methanone]
8.04 |  |  |  | Cc1cc2cc(C(=O)c3cnn(-c4cc(C)c(Oc5ccccc5F)cc4F)c3N)[nH]c2cc1NS(C)(=O)=O [Example 5-1-206, N-[2-[5-amino-1-[2-fluoro-4-(2-fluorophenoxy)-5-methylphenyl]pyrazole-4-carbonyl]-5-methyl-1H-indol-6-yl]methanesulfonamide]
7.59 | 5.36 |  |  | Cc1cc2cc(C(=O)c3cnn(-c4ccc(Oc5cccc(F)c5)c(C)c4)c3N)[nH]c2cc1NS(C)(=O)=O [Example 5-1-211, N-[2-[5-amino-1-[4-(3-fluorophenoxy)-3-methylphenyl]pyrazole-4-carbonyl]-5-methyl-1H-indol-6-yl]methanesulfonamide]
6.92 |  |  |  | Cc1cc(-n2ncc(C(=O)c3cc4cc(OCC(F)F)c(-c5cccs5)cc4[nH]3)c2N)ccc1Oc1ccccc1F [Example 5-1-256, [5-amino-1-[4-(2-fluorophenoxy)-3-methylphenyl]pyrazol-4-yl]-[5-(2,2-difluoroethoxy)-6-thiophen-2-yl-1H-indol-2-yl] methanone]
8.47 | 6.40 |  |  | Cc1cc(-n2ncc(C(=O)c3cc4cc(OC5CCN(C6CS(=O)(=O)C6)CC5)c(-c5ccccc5Cl)cc4[nH]3)c2N)ccc1Oc1ccccc1F [Example 5-1-289, [5-amino-1-[4-(2-fluorophenoxy)-3-methylphenyl]pyrazol-4-yl]-[6-(2-chlorophenyl)-5-[1-(1,1-dioxothietan-3-yl)piperidin-4-yl]oxy-1H-indol-2-yl]methanone]
7.59 | 6.14 |  |  | Cc1cc2cc(C(=O)c3cnn(-c4ccc(Oc5ccccc5F)c(C)c4)c3N)[nH]c2cc1NS(C)(=O)=O [Example 5-1-307, N-[2-[5-amino-1-[4-(2-fluorophenoxy)-3-methylphenyl]pyrazole-4-carbonyl]-5-methyl-1H-indol-6-yl]methanesulfonamide]
8.38 | 6.62 |  |  | Cc1cc(-n2ncc(C(=O)c3cc4cc(OC5CCN(C6CS(=O)(=O)C6)CC5)c(-c5ccccc5C)cc4[nH]3)c2N)ccc1Oc1ccccc1F [Example 5-1-336, [5-amino-1-[4-(2-fluorophenoxy)-3-methylphenyl]pyrazol-4-yl]-[5-[1-(1,1-dioxothietan-3-yl)piperidin-4-yl]oxy-6-(2-methylphenyl)-1H-indol-2-yl]methanone]
8.41 | 6.00 |  |  | Cc1cc(-n2ncc(C(=O)c3cc4cc(OC5CCN(C6CS(=O)(=O)C6)CC5)c(-c5ccccc5C(F)(F)F)cc4[nH]3)c2N)ccc1Oc1ccccc1F [Example 5-1-386, (5-amino-1-(4-(2-fluorophenoxy)-3-methylphenyl)-1H-pyrazol-4-yl)(5-((1-(1,1-dioxidothietan-3-yl)piperidin-4-yl)oxy)-6-(2-(trifluoromethyl)phenyl)-1H-indol-2-yl)methanone]
 |  | 7.51 | 6.06 | Cc1cc(-n2ncc(C(=O)c3cc4cc(C)c(N5C(=O)NC6(CCCCC6)C5=O)cc4[nH]3)c2N)ccc1Oc1ccccc1F [Example 5-1-470, 3-[2-[5-amino-1-[4-(2-fluorophenoxy)-3-methylphenyl]pyrazole-4-carbonyl]-5-methyl-1H-indol-6-yl]-1,3-diazaspiro[4.5]decane-2,4-dione]
 |  | 7.09 | 6.01 | Cc1cc(-n2ncc(C(=O)c3cc4cc(C)c(N5C(=O)NC6(CCN(C(=O)OC(C)(C)C)CC6)C5=O)cc4[nH]3)c2N)ccc1Oc1ccccc1F [Example 5-1-471, tert-Butyl 3-[2-[5-amino-1-[4-(2-fluorophenoxy)-3-methylphenyl]pyrazole-4-carbonyl]-5-methyl-1H-indol-6-yl]-2,4-dioxo-1,3,8-triazaspiro[4.5]decane-8-carboxylate]
 |  | 7.40 | 6.15 | Cc1cc(-n2ncc(C(=O)c3cc4cc(C)c(N5C(=O)NC(C)(C(F)(F)F)C5=O)cc4[nH]3)c2N)ccc1Oc1ccccc1F (stereo not drawn) [Example 5-1-472, 3-[2-[5-amino-1-[4-(2-fluorophenoxy)-3-methylphenyl]pyrazole-4-carbonyl]-5-methyl-1H-indol-6-yl]-5-methyl-5-(trifluoromethyl) imidazolidine-2,4-dione]
 |  | 7.57 | 6.19 | Cc1cc(-n2ncc(C(=O)c3cc4cc(C)c(N5C(=O)NC6(CCCC6)C5=O)cc4[nH]3)c2N)ccc1Oc1ccccc1F [Example 5-1-474, 3-[2-[5-amino-1-[4-(2-fluorophenoxy)-3-methylphenyl]pyrazole-4-carbonyl]-5-methyl-1H-indol-6-yl]-1,3-diazaspiro[4.4]nonane-2,4-dione]
 |  | 8.28 | 5.52 | Cc1cc(-n2ncc(C(=O)c3cc4cc(F)c(NS(=O)(=O)C5CCOCC5)cc4[nH]3)c2N)ccc1Oc1ccccc1F [Example 5-1-493, N-[2-[5-amino-1-[4-(2-fluorophenoxy)-3-methylphenyl]pyrazole-4-carbonyl]-5-fluoro-1H-indol-6-yl]oxane-4-sulfonamide]
